Source: DBAASP
≈ marks a conversion by molar mass, not a printed value. Where “and” joins values, the source holds several entries; their conditions need not be identical. Equal entries are not always repeated. Blank lines part the entries; values can stand above or below the compound they belong to.

What was measured:
Test in all cases: ≥ marks a high value that may be exact or a test limit, other limits are often not marked, values filed in µg/mL are converted to µM
[1] = system: Candida tropicalis CCARM 14019
[2] = system: Escherichia coli AB94012
[3] = system: Escherichia coli ATCC 25922
[4] = system: Pseudomonas aeruginosa AB93066
[5] = system: Pseudomonas aeruginosa ATCC 9027
[6] = system: Staphylococcus aureus AB94004
[7] = system: Staphylococcus aureus ATCC 25923
[8] = system: Staphylococcus aureus ATCC 6538
[9] = system: Staphylococcus aureus P1374
[10] = system: Staphylococcus aureus P1381
[11] = system: Bacillus subtilis 168
[12] = system: Candida albicans F7-39/IDE99
[13] = system: Escherichia coli B
[14] = system: Micrococcus luteus CCM 144
[15] = system: Pseudomonas aeruginosa
[16] = system: Staphylococcus aureus
[17] = system: Bacillus megaterium CIP 6620
[18] = system: Corynebacterium stationis CIP 101282
[19] = system: Escherichia coli SBS 363
[20] = system: Microbacterium maritypicum CIP 105733T
[21] = system: Micrococcus luteus CIP 5345
[22] = system: Staphylococcus aureus CIP 103428
[23] = system: Staphylococcus aureus SG511
[24] = system: Staphylococcus haemolyticus
[25] = system: Vibrio nigripulchritudo CIP 103195
[26] = system: Vibrio splendidus CIP 107715
[27] = system: Burkholderia cepacia
[28] = system: Delftia acidovorans
[29] = system: Elizabethkingia meningoseptica
[30] = system: Pseudomonas aeruginosa 6206
[31] = system: Pseudomonas aeruginosa 6294
[32] = system: Pseudomonas aeruginosa ATCC 19660
[33] = system: Pseudomonas aeruginosa PAER1
[34] = system: Staphylococcus aureus 31
[35] = system: Staphylococcus aureus 38
[36] = system: Stenotrophomonas maltophilia
[37] = system: Candida albicans ATCC 10231
[38] = system: Cryptococcus neoformans ATCC 32264
[39] = system: Escherichia coli
[40] = system: Pseudomonas aeruginosa ATCC 27853
[41] = system: Salmonella enterica subsp. enterica serovar Enteritidis
[42] = system: Salmonella sp.
[43] = system: Staphylococcus aureus ATCC 29213
[44] = system: Staphylococcus aureus ATCC 33591
[45] = system: Staphylococcus aureus ATCC 43300
[46] = system: Yersinia enterocolitica
[47] = system: Fusarium graminearum PH-1

Structure (SMILES): CC[C@H](C)[C@H](NC(=O)CN)C(=O)N[C@@H](CC(C)C)C(=O)NCC(=O)N[C@@H](CCCCN)C(=O)N[C@@H](CC(C)C)C(=O)N[C@@H](Cc1c[nH]c2ccccc12)C(=O)N[C@@H](CCCCN)C(=O)NCC(=O)N[C@H](C(=O)N[C@@H](CCCCN)C(=O)N[C@@H](CO)C(=O)N[C@H](C(=O)N[C@@H](Cc1ccccc1)C(N)=O)[C@@H](C)CC)C(C)C [GILGKLWKGVKSIF]
MIC [2]: 16.2 µM (≈ 25 µg/mL)
MIC [3]: 64.7 µM (≈ 99.9 µg/mL)
MIC [4]: ≥ 32.3 µM
MIC [5]: 16.2 µM (≈ 25 µg/mL)
MIC [6]: 4.04 µM (≈ 6.25 µg/mL)
MIC [7]: 8.09 µM (≈ 12.5 µg/mL)
MIC [8]: 4.04 µM (≈ 6.25 µg/mL)
MIC [9]: 4.04 µM (≈ 6.25 µg/mL)
MIC [10]: 4.04 µM (≈ 6.25 µg/mL)

Structure (SMILES): CC[C@H](C)[C@H](NC(=O)[C@H](CC(C)C)NC(=O)[C@H](CCCCN)NC(=O)[C@@H](NC(=O)[C@@H](NC(=O)[C@H](Cc1cnc[nH]1)NC(=O)[C@@H]1CCCN1C(=O)[C@H](CC(C)C)NC(=O)[C@@H](NC(=O)[C@H](CCCCN)NC(=O)[C@H](C)NC(=O)[C@H](CC(C)C)NC(=O)[C@H](CCCCN)NC(=O)[C@H](CO)NC(=O)[C@H](C)NC(=O)[C@H](CCSC)NC(=O)CN)C(C)C)C(C)C)C(C)C)C(=O)N[C@@H](CCCCN)C(=O)O [GMASKLAKVLPHVVKLIK]
MIC [11]: 3.1 µM (≈ 5.99 µg/mL)
MIC [12]: ≥ 56.3 µM
MIC [13]: 2.9 µM (≈ 5.6 µg/mL)
MIC [14]: 1.4 µM (≈ 2.71 µg/mL)
MIC [15]: 100 µM (≈ 193 µg/mL)
MIC [16]: 35 µM (≈ 67.6 µg/mL)

Structure (SMILES): CC[C@H](C)[C@H](NC(=O)[C@@H]1CCCN1C(=O)CN)C(=O)N[C@@H](CCCN=C(N)N)C(=O)N[C@@H](CCCN=C(N)N)C(=O)N1CCC[C@H]1C(=O)N[C@@H](CCC(=O)O)C(=O)N1CCC[C@H]1C(=O)N[C@@H](CCCN=C(N)N)C(=O)N1CCC[C@H]1C(=O)N[C@@H](CCCN=C(N)N)C(=O)N1CCC[C@H]1C(=O)N[C@@H](CCC(=O)O)C(=O)O [GPIRRPEPRPRPE]
MIC [17]: 20 µM (≈ 31.1 µg/mL)
MIC [18]: 20 µM (≈ 31.1 µg/mL)
MIC [19]: ≥ 80 µM
MIC [20]: 20 µM (≈ 31.1 µg/mL)
MIC [21]: ≥ 80 µM
MIC [22]: 20 µM (≈ 31.1 µg/mL)
MIC [23]: 20 µM (≈ 31.1 µg/mL)
MIC [24]: 20 µM (≈ 31.1 µg/mL)
MIC [25]: ≥ 40 µM
MIC [26]: ≥ 40 µM

Structure (SMILES): CC[C@H](C)[C@H](NC(=O)[C@H](CCCCN)NC(=O)[C@@H](NC(=O)[C@H](CCC(N)=O)NC(=O)[C@@H](N)CCCCN)[C@@H](C)CC)C(=O)N[C@@H](Cc1c[nH]c2ccccc12)C(=O)N[C@@H](Cc1ccccc1)C(=O)N[C@@H](CCC(N)=O)C(=O)N[C@@H](CC(N)=O)C(=O)N[C@@H](CCCCN)C(=O)N[C@@H](CCCCN)C(=O)N[C@@H](CCSC)C(=O)N[C@@H](CCCCN)C(=O)N[C@@H](Cc1c[nH]c2ccccc12)C(=O)N[C@@H](CCCCN)C(=O)N[C@@H](CCCCN)C(N)=O [KQIKIWFQNKKMKWKK]
MIC [37]: 50 µM (≈ 108 µg/mL)
MIC [38]: ≥ 50 µM
MIC [3]: 64 µM and 50 µM
MIC [39]: 17.7 µM (≈ 38.2 µg/mL)
MIC [40]: > 50 µM
MIC [41]: 25 µM (≈ 54 µg/mL)
MIC [42]: ≥ 50 µM
MIC [43]: > 50 µM
MIC [44]: ≥ 256 µM
MIC [45]: > 50 µM
MIC [46]: ≥ 50 µM

Results, then the compound that gave them:

MIC [1]: 0.466 µM and 0.931 µM
Structure (SMILES): CC(C)C[C@H](NC(=O)CNC(=O)[C@H](Cc1cnc[nH]1)NC(=O)[C@H](Cc1cnc[nH]1)NC(=O)[C@H](CCCN=C(N)N)NC(=O)[C@H](CCCCN)NC(=O)[C@H](C)N)C(=O)N[C@@H](CC(N)=O)C(=O)N[C@@H](CS)C(=O)N[C@@H](C)C(=O)N[C@@H](CCCCN)C(=O)N[C@@H](Cc1ccccc1)C(=O)N[C@@H](Cc1cnc[nH]1)C(N)=O [AKRHHGLNCAKFH]

MIC [27]: ≥ 426 µM
MIC [28]: ≥ 426 µM
MIC [29]: ≥ 213 µM
MIC [30]: 26.6 µM (≈ 62.5 µg/mL)
MIC [31]: ≥ 106 µM
MIC [32]: 26.6 µM (≈ 62.5 µg/mL)
MIC [33]: ≥ 106 µM
MIC [34]: ≥ 106 µM
MIC [35]: ≥ 106 µM
MIC [8]: 53.2 µM (≈ 125 µg/mL)
MIC [36]: 13.3 µM (≈ 31.2 µg/mL)
Structure (SMILES): NCCCC[C@H](NC(=O)[C@H](CCCN=C(N)N)NC(=O)[C@H](CCCCN)NC(=O)[C@H](CC(N)=O)NC(=O)[C@@H](N)CCCCN)C(=O)N[C@@H](CCCN=C(N)N)C(=O)N[C@@H](CCCN=C(N)N)C(=O)N[C@@H](CCCN=C(N)N)C(=O)N[C@@H](CCCN=C(N)N)C(=O)N[C@@H](CCCN=C(N)N)C(=O)N[C@@H](CCCN=C(N)N)C(=O)NCC(=O)NCC(=O)N[C@@H](CCCN=C(N)N)C(=O)N[C@@H](CCCN=C(N)N)C(=O)N[C@@H](CCCN=C(N)N)C(=O)N[C@@H](CCCN=C(N)N)C(=O)O [KNKRKRRRRRRGGRRRR]

MIC [47]: ≥ 96 µM
Structure (SMILES): NC(N)=NCCC[C@H](NC(=O)[C@H](Cc1ccccc1)NC(=O)[C@H](CC(=O)O)NC(=O)[C@H](CC(=O)O)NC(=O)[C@@H](N)CCCN=C(N)N)C(=O)O [RDDFR]
